The results in this text go back to ChEMBL document CHEMBL2177014 (J Med Chem, 2012).

Where a name gives a salt, the structure may show the parent alone. Some results are limits rather than exact numbers.

One data set deals with SH-SY5Y. The data set can be described thus: Neuroprotective activity in human SH-SY5Y cells assessed as protection against NMDA-induced cell death after 6 hrs by MTS assay. Type of data set: functional, cell-based.
Data set [1] can be described thus: Binding affinity to NMDAR in Sprague-Dawley rat cerebral cortex homogenates. Type of data set: tissue-based.
The target in a further data set is T1, Acetylcholinesterase (Rattus norvegicus, UniProt P37136).
T1 sequence (P37136 whole entry): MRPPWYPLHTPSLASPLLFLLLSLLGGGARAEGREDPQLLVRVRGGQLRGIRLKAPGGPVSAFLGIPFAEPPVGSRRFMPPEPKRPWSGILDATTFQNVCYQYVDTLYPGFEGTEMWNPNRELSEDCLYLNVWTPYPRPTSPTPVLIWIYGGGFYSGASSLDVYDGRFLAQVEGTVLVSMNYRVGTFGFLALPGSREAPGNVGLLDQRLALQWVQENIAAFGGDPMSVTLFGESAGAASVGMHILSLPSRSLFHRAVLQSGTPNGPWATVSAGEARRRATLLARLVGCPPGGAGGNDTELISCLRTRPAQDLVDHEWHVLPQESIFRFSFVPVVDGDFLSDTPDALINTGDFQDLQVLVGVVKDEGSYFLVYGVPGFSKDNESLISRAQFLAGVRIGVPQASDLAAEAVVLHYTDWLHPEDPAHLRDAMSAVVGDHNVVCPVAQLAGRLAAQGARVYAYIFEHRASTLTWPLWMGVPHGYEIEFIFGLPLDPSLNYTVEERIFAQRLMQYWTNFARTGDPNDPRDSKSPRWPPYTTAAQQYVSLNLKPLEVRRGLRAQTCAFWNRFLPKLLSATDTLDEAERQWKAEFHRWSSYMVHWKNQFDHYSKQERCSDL
Put plainly: biochemical.

A short description of data set [2]: Displacement of [3H]MK-801 from NMDAR in Sprague-Dawley rat cerebral cortex homogenates after 2 hrs by liquid scintillation counting. Type of data set: tissue-based. For orientation: Loss of bound radioactivity is the signal in a displacement assay; it reports binding, not function.
Data set [3] deals with Glutamate receptor ionotropic, NMDA 2B (Rattus norvegicus, UniProt Q00960). Put plainly: Displacement of [3H]Ifenprodil from NMDAR-2B in Sprague-Dawley rat frontal cortex homogenates after 2 hrs by liquid scintillation counting. The class given is tissue-based.
Chain of Glutamate receptor ionotropic, NMDA 2B (Q00960 whole entry): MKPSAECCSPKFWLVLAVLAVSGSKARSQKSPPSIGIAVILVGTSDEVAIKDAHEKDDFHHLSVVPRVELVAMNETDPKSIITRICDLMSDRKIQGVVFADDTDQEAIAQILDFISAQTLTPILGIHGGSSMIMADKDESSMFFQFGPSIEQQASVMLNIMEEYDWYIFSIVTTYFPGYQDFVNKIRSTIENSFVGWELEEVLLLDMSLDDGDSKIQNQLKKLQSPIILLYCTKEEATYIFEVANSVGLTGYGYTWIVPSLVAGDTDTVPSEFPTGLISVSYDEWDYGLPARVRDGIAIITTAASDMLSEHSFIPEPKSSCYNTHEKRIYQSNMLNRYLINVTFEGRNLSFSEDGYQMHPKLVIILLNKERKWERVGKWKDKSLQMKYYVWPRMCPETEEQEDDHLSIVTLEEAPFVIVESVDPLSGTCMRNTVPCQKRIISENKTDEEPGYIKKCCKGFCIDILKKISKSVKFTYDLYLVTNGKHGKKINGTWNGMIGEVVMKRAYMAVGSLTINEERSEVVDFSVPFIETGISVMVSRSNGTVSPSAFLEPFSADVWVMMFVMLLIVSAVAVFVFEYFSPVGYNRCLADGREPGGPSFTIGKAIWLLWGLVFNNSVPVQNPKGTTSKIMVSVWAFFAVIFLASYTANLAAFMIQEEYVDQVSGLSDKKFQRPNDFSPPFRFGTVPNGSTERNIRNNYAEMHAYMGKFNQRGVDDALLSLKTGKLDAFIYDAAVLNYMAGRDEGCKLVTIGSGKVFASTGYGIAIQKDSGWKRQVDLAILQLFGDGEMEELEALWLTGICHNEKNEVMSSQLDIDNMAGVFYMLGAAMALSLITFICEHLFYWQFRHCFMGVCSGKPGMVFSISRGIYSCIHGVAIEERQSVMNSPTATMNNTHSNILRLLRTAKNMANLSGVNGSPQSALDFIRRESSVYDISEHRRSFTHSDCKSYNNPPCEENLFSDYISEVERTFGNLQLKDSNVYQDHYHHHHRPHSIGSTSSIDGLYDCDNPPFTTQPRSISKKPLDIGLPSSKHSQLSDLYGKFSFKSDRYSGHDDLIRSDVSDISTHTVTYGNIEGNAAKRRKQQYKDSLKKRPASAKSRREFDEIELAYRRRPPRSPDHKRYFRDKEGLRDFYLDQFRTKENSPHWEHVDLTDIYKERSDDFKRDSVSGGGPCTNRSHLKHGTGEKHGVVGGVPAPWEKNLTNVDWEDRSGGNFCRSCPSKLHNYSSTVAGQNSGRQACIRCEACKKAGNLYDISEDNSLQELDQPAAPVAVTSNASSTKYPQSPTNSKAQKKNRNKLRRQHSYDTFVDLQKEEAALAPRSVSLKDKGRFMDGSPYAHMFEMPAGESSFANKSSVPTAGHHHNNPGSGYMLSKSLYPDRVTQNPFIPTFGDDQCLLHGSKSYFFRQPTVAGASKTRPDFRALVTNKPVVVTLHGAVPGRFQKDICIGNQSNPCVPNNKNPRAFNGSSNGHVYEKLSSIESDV
A short description of data set [4]: Lipophilicity, log P of the compound. The class given is physicochemical. The settings on record: octanol/water.
The species named for the next data set is Rattus norvegicus. Put plainly: Displacement of [3H]MK-801 from NMDAR in Sprague-Dawley rat cerebral cortex homogenates at 10 uM after 2 hrs by liquid scintillation counting. The class given is tissue-based.
The target in data set [5] is T2, Acetylcholinesterase (Rattus norvegicus) (UniProt P37136).
T2 sequence (whole entry): T1 sequence (P37136 whole entry)
Put plainly: Inhibition of AChE in Wistar rat brain homogenates using acetylthiocholine iodide and DTNB as substrate at 10 uM after 10 mins by Ellman method. The class given is tissue-based. (In general: DTNB colorimetry detects thiols as they appear.)

With `C[C@]12N[C@H](Cc3ccccc31)c1ccccc12` [DIZOCILPINE MALEATE], in the data set with SH-SY5Y, the IC50 is 7.91 nM. Further, the Kd in data set [1] worked out at 4 nM.

For `COc1ccc2c3c1O[C@H]1C[C@@H](O)C=C[C@@]31CCN(CCSCCNC13CC4CC(C)(CC(C)(C4)C1)C3)C2`, half-maximal inhibition against Acetylcholinesterase (IC50) required 131 nM. Moreover, the Ki in data set [2] is more than 10000 nM; in data set [3] it was more than 100000 nM.

For `CC(C(O)c1ccc(O)cc1)N1CCC(Cc2ccccc2)CC1` (configuration not stated) [IFENPRODIL], in data set [2], the Ki came out at 3080 nM.

In the case of `COc1ccc2c3c1O[C@H]1C[C@@H](O)C=C[C@@]31CCN(CCCCCCNC13CC4CC(C)(CC(C)(C4)C1)C3)C2` [MEMAGAL], the logP in data set [4] is 4.94. Moreover, the IC50 was found to be 1.16 nM against Acetylcholinesterase and 0.28 nM in the data set on SH-SY5Y. The inhibition constant (Ki) in data set [2] and in data set [3] was 4600 nM in each case.

Compound `COc1ccc2c3c1O[C@H]1C[C@@H](O)C=C[C@@]31CCN(CCCCCCCN(C)C13CC4CC(C)(CC(C)(C4)C1)C3)C2` had an IC50 against Acetylcholinesterase of 1.33 nM. The Ki in data set [2] was more than 10000 nM; in data set [3] it was more than 100000 nM.

Take `COc1ccc2c3c1O[C@H]1C[C@@H](O)C=C[C@@]31CCN(CCCCCC(=O)NC13CC4CC(C)(CC(C)(C4)C1)C3)C2`: the IC50 at Acetylcholinesterase came out at 11.3 nM; in the data set with SH-SY5Y it was 0.37 nM. For the same compound, the Ki in data set [3] was 9760 nM. Further, the inhibition in the data set listed under Rattus norvegicus is 33.9%.

Compound `COc1ccc2c3c1O[C@H]1C[C@@H](O)C=C[C@@]31CCN(CCCCNC13CC4CC(C)(CC(C)(C4)C1)C3)C2` had a logP in data set [4] of 3.98. In addition, the IC50 on Acetylcholinesterase came out at 696 nM. Besides, the Ki is 2320 nM in data set [2] and more than 100000 nM in data set [3].

`COc1ccc2c3c1O[C@H]1C[C@@H](O)C=C[C@@]31CCN(CCCCC(=O)NC13CC4CC(C)(CC(C)(C4)C1)C3)C2` gave an IC50 against Acetylcholinesterase of 369 nM. In addition, the Ki was more than 10000 nM in data set [2] and more than 100000 nM in data set [3].

On to `COc1ccc2c3c1O[C@H]1C[C@@H](O)C=C[C@@]31CCN(CCCCCCCCN(C)C13CC4CC(C)(CC(C)(C4)C1)C3)C2`, for which half-maximal inhibition on Acetylcholinesterase (IC50) required 0.52 nM. Moreover, the Ki is more than 10000 nM in data set [2] and more than 100000 nM in data set [3].

As to `COc1ccc2c3c1O[C@H]1C[C@@H](O)C=C[C@@]31CCN(CCCCCCCCNC13CC4CC(C)(CC(C)(C4)C1)C3)C2`, the logP in data set [4] turned out to be 5.9. The compound also showed an IC50 against Acetylcholinesterase of 5.36 nM. Further, the inhibitory constant (Ki) in data set [2] is 4990 nM; in data set [3], 2900 nM.

Turning to `COc1ccc2c3c1O[C@H]1C[C@@H](O)C=C[C@@]31CCN(CCCCCCN(C)C13CC4CC(C)(CC(C)(C4)C1)C3)C2`, the IC50 against Acetylcholinesterase was 1.03 nM. In addition, the values for the Ki in data set [2] and in data set [3] were more than 10000 nM and 5250 nM, respectively.

In turn, `COc1ccc2c3c1O[C@H]1C[C@@H](O)C=C[C@@]31CCN(CCCCCNC13CC4CC(C)(CC(C)(C4)C1)C3)C2` yielded a log partition coefficient (logP) in data set [4] of 4.46. For the same compound, on Acetylcholinesterase, half-maximal inhibition (IC50) required 4.31 nM. Moreover, the values for the Ki in data set [2] and in data set [3] were more than 10000 nM and 40900 nM, respectively.

Regarding `COc1ccc2c3c1O[C@H]1C[C@@H](O)C=C[C@@]31CCN(CCCNCCCNC13CC4CC(C)(CC(C)(C4)C1)C3)C2`, the IC50 at Acetylcholinesterase stood at 168 nM. For the same compound, the Ki in data set [2] was 5410 nM; in data set [3], 3320 nM.

`COc1ccc2c3c1O[C@H]1C[C@@H](O)C=C[C@@]31CCN(CCOCCNC13CC4CC(C)(CC(C)(C4)C1)C3)C2` gave an IC50 against Acetylcholinesterase of 3920 nM. Moreover, the figures for the Ki in data set [2] and in data set [3] were more than 10000 nM and more than 100000 nM, respectively.

Turning to `COc1ccc2c3c1O[C@H]1C[C@@H](O)C=C[C@@]31CCN(CCOCCOCCNC13CC4CC(C)(CC(C)(C4)C1)C3)C2`, the IC50 is 80.9 nM against Acetylcholinesterase and more than 10000 nM with SH-SY5Y. The results for the Ki in data set [2] and in data set [3] were more than 10000 nM and more than 100000 nM, respectively.

As to `COc1ccc2c3c1O[C@H]1C[C@@H](O)C=C[C@@]31CCN(CCCCCCCNC13CC4CC(C)(CC(C)(C4)C1)C3)C2`, in data set [4], the logP worked out at 5.42. In addition, the IC50 at Acetylcholinesterase worked out at 1.79 nM; in the data set with SH-SY5Y, 0.21 nM. Besides, the Ki in data set [2] is 10000 nM; in data set [3] it was 11000 nM.

For the compound `CC12CC3CC(C)(C1)CC(N)(C3)C2` [MEMANTINE], the inhibition in data set [5] amounted to 8.5%. This compound also returned a Ki in data set [2] of 1160 nM. For the same compound, the IC50 in the data set on SH-SY5Y stood at 718 nM.

Turning to `COc1ccc2c3c1O[C@H]1C[C@@H](O)C=C[C@@]31CCN(CCCC(=O)NC13CC4CC(C)(CC(C)(C4)C1)C3)C2`, at Acetylcholinesterase, the IC50 is 55.7 nM. Further, the Ki in data set [2] was more than 10000 nM; in data set [3], more than 100000 nM.

Consider `COc1ccc2c3c1O[C@H]1C[C@@H](O)C=C[C@@]31CCN(C)C2` [GALANTAMINE], for which the Ki was more than 10000 nM in data set [2] and more than 100000 nM in data set [3]. The IC50 in the data set on SH-SY5Y came out at 747 nM.

In the case of `COc1ccc2c3c1O[C@H]1C[C@@H](O)C=C[C@@]31CCN(CCCCCCCCCNC13CC4CC(C)(CC(C)(C4)C1)C3)C2`, the logP in data set [4] was determined as 6.38. Further, the IC50 at Acetylcholinesterase amounted to 2.32 nM. Also, the figures for the Ki in data set [2] and in data set [3] were 4630 nM and more than 100000 nM, respectively.

The IC50 is the concentration that gives 50% inhibition. By Kd is commonly meant the constant that tells how readily two partners part at equilibrium. High values mean lower affinity, low ones higher affinity. One may read the Ki as a dissociation constant, usually derived from enzyme kinetics or from competition with a known ligand. A low value points to a stronger hold on the target. The term logP denotes the decadic logarithm of the partition coefficient of the neutral form, usually between octanol and water. A lower logP goes with a more hydrophilic compound. By inhibition is commonly meant the percentage by which the read-out fell short of the control. The low end stands for a response near the control, the high end for a response far below the control.
